# From US20250206789A1, “ZINC FINGER DEGRON SEQUENCES” (STICHTING HET NEDERLANDS KANKER INSTITUUT-ANTONI VAN …, priority 2022, published 2025)
# Test system: Jurkat cells
# Assay: SynFinger library screen: CD69 expression of CRASH-IT (Zap70-PD1-degron) transduced Jurkat cells with or without lenalidomide, enrichment index from NGS reads
# Type: cell-based
# Parameters: key to EI / EI index (enrichment index): enrichment index; low EI = SynFinger with desired properties
# Settings: Table 6; dual substitutions in first hybrid zinc finger domain; Jurkat, 50 nM lenalidomide vs mock, CD69-HI/CD69-LO; low EI = desired
# Description: […] Jurkat cells were transduced with the SynFinger library (SynFinger containing CRASH-IT switches) at a 12.8% transduction efficiency and sorted for high EGFP expression to enrich transduced cells. For quality control of the SynFinger transduced Jurkat cells, SynFinger sequences were amplified and analyzed by NGS. 10 randomly selected SynFinger encoding DNA sequences or DNA sequences encoding the same SynFinger amino acid sequences but contain 2 nucleotide mismatches due to alternative codon usage were used to assess ability to distinguish true SynFinger sequences from noise in the NGS data. 10/10 SynFinger encoding full-nucleotide sequence match sequences were observed within NGS data whereas the 2 nucleotide mismatch containing sequences were not detected.
# Jurkat cells expressing the SynFinger library were treated with 50 nM lenalidomide (a suboptimal dose that activates only ˜50% of cells expressing a CRASH-IT switch containing the parental double hybrid degron in Jurkat cells, as compared to a maximally effective 1000 nM lenalidomide dose) or were mock treated for 24 hours, and subsequently activated with anti-CD3/anti-CD28 antibodies in the presence or absence of 50 nM lenalidomide for 5 hours. Afterwards, cells were stained with IR dye (1:400) and anti-CD69-PE (1:200). Cells were sorted for live (IR dye negative), EGFP high end CD69 high (top 5%) or CD69 low (bottom 5%) expression using Aria Fusion cytometers.
# Subsequently, cells were washed with PBS, and cell pellets were frozen at −20° C. until DNA extraction. Genomic DNA was isolated using the DNeasy Blood & Tissue Kit (Qiagen) according to the manufacturer's instructions, using 5×10^6 cells per column. DNA was eluted in 22 μl RNAse free water. Deep sequencing adapters and indexes were added to SynFinger encoding DNA sequences using PCR amplification. Briefly, 3 μg genomic DNA (20 μl), indexed forward and reverse primers (10 μM, 2.5 μl each) and 25 μl NEBNext® High-Fidelity 2×PCR Master Mix were added to the PCR reaction. An optimized PCR reaction (98° C. for 30 s, (98° C. for 10 s, 56° C. for 10 s, 72° C. for 5 s)×25 cycles, 72° C. for 3 min was performed using Eppendorf PCR cyclers.
# Indexed PCR products were run on agarose gel, relative DNA concentrations were estimated by measuring band intensity, and 12 indexed PCR reaction products were mixed per MiSeq chip. To increase sequence diversity, samples were mixed with 25% PhiX DNA. In total, 2 MiSeq chips were used (100 bp, single read). To distinguish genuine SynFinger sequences from sequencing errors, results were filtered using a reference list of actual sequences used in SynFinger library design (100% codon match). Sequences with a very low number of reads (sum of all samples below 500 reads) were excluded from analysis.
# To identify SynFingers that improve sensitivity of CRASH-IT switches towards lenalidomide while preserving or improving stringency of switch mediated control of T cell activation in the absence of lenalidomide, an enrichment index (EI) value was calculated for each sequence as described below, and SynFingers were ranked according to their EI, with a low EI indicating a SynFinger with desired properties.
# CD69-HI and […] read counts from top 100 SynFingers were compared with read counts from the parental double hybrid degron using a two-sided Fisher's exact test to determine enrichment of CD69-HI cells in the presence of lenalidomide and enrichment of CD69-LO cells in the absence of lenalidomide.
# To further improve the sensitivity of double hybrid degron towards IMiDs, we performed a high throughput screen using a library of ˜50,200 CRASH-IT variants that encode either single or double amino acid substitutions at the indicated positions of the first hybrid zinc finger sequence, thereby changing 18 amino acids of this zinc finger into any amino acid except cysteine (FIG. 3). […]
row,Substance,EI index (enrichment index)
1,67 (LQCEICGFTCRQQLNLLRHIKLH) [compound 67],0.0303
2,68 (HQCEICGFTCRQKGRLLRHIKLH) [compound 68],0.03141
3,69 (LQCEICGFTCRQKGNLDRHIKRH) [compound 69],0.03188
4,70 (LQCWICGFTCRQKMNLLRHIKLH) [compound 70],0.03192
5,71 (LQCEICGFTCRKKNNLLRHIKLH) [compound 71],0.03227
6,72 (YQCEICGFTCRQKGNLLRHIILH) [compound 72],0.03275
7,73 (LQCHICGFTSRQKGNLLRHIKLH) [compound 73],0.03303
8,74 (WQCEICGFTCRQKGNLLRHIALH) [compound 74],0.03362
9,75 (LQCHICGFTCRQHGNLLRHIKLH) [compound 75],0.03442
10,76 (LQCQICGFTCRRKGNLLRHIKLH) [compound 76],0.03445
11,77 (LQCEICGFTCRKRGNLLRHIKLH) [compound 77],0.03531
12,78 (LQCNICGFTCRQLGNLLRHIKLH) [compound 78],0.03544
13,79 (LQCEICGFTCRKKGNLLRHIILH) [compound 79],0.03569
14,80 (LQCEICGFTCRQPGNLLRHYKLH) [compound 80],0.03685
15,81 (LQCEICGFTCRQDGRLLRHIKLH) [compound 81],0.03726
16,82 (LQCMICGFTCRQKGNLMRHIKLH) [compound 82],0.03754
17,83 (LQCWICGFTCRQKGNMLRHIKLH) [compound 83],0.03839

row,Substance,EI index (enrichment index)
1,84 (LQCEICGFTCRQKGKYLRHIKLH) [compound 84],0.03903
2,85 (WQCMICGFTCRQKGNLLRHIKLH) [compound 85],0.03924
3,86 (LQCVICGFQCRQKGNLLRHIKLH) [compound 86],0.0393
4,87 (LQCEICGFTCRQKQRLLRHIKLH) [compound 87],0.0394
5,88 (LQCEICGFRCRQKGNLLRHIKKH) [compound 88],0.03947
6,89 (MQCEICGFTCRQKSNLLRHIKLH) [compound 89],0.04065
7,90 (LQCEICGFTCRQHGVLLRHIKLH) [compound 90],0.04107
8,91 (LQCWICGFTCRQKGNLWRHIKLH) [compound 91],0.04125
9,92 (LQCEICGFTCRQLRNLLRHIKLH) [compound 92],0.04129
10,93 (LQCEICGFTSRQKGRLLRHIKLH) [compound 93],0.04175
11,94 (MQCVICGFTCRQKGNLLRHIKLH) [compound 94],0.04229
12,95 (LQCLICGFTCRQKGNLLRHIRLH) [compound 95],0.04285
13,96 (LQCEICGFTCRQKLNLLRHIKRH) [compound 96],0.04285
14,97 (LQCEICGFTCRKKVNLLRHIKLH) [compound 97],0.04294
15,98 (LQCEICGFKCRQKGNLLRHIKRH) [compound 98],0.04302
16,99 (LQCEICGFTCRQKGNLLRHINNH) [compound 99],0.04339
17,100 (LQCEICGFTCRQKGRLLRHIHLH) [compound 100],0.04461

# Same assay, conditions: single mutation vs dual substitution L1Y/E4V; higher EI = less sensitive to IMiD
row,Substance,"EI value, times higher as compared to SEQ ID. NO 36"
1,"YQCEICGFTCRQKGNLLRHIKLH [SEQ ID NO: 108, first hybrid zinc finger domain with only one mutation, substitution L1Y]",10-15 times

# Same assay, conditions: single mutation vs dual substitution; higher EI = less sensitive to IMiD
row,Substance,"EI value, times higher as compared to SEQ ID. NO 100"
1,"YQCEICGFTCRQKGNLLRHIKLH [SEQ ID NO: 108, first hybrid zinc finger domain with only one mutation, substitution L1Y]",at least 5 times

# Test system: Primary human T cells
# Assay: Cytokine production and degranulation of CDK4 TCR T cells with Zap70-Siglec11-degron CRASH-IT switch co-cultured with NKIRTIL006 melanoma cells, lenalidomide
# Type: cell-based
# Settings: 5 nM lenalidomide; as compared to double hybrid degron containing CRASH-IT switch
# Description: FIG. 5: SynFingers fusion proteins enable sensitive control of immune cell functions. A subset of SynFingers identified in the SynFinger library screen were individually validated. (A-H) Primary human T cells were modified with the HLA class I restricted CDK4 TCR plus a Zap70-Siglec11-degron CRASH-IT switch, in which the degron sequence contains the parental zinc finger degron (double hybrid degron depicted in FIGS. 1 and 3), or the parental zinc finger degron with the following mutations: G14N/K21A, G14M/N15R, L17I/K21L, E4R/Q12L, Q12R/K13T, or Q12R/K13V. As a control, primary human T cells modified with the HLA class I restricted CDK4 TCR plus vector control were used. Cells were pretreated with 5 nM lenalidomide or left untreated. Data depict intracellular IFNγ, IL2, TNFα, and cell surface LAMP1 expression of CDK4 TCR+, EGFP intermediate, CD8+ T cells upon co-culture with NKIRTIL006 melanoma cells in the continued absence (E-H) or continued presence of 5 nM lenalidomide (A-D). Dashed horizontal lines indicate cytokine production and degranulation levels of cells modified with a CRASH-IT switch containing the parental zinc finger degron. Error bars represent standard deviation (n=2). SynFinger and vector control groups were compared to the parental zinc finger group using a one-sided t test: *=p<0.05, **=p<0.01, ***=p<0.001, ****=p<0.0001, n.s.=not significant. Data are representative of two independent experiments.
# FIG. 6: SynFinger containing CRASH-IT switches enable restoration of cytokine production and degranulation at lower IMID concentrations as compared to zinc finger degrons not according to the invention. (A-D) Primary human T cells modified with the HLA class I restricted CDK4 TCR plus a Zap70-Siglec11-degron CRASH-IT switch, in which the degron sequence contains prior art zinc finger degrons (single hybrid, dual zinc finger degron depicted in FIG. 1), the parental zinc finger degron (double hybrid degron depicted in FIGS. 1 and 3), or the parental zinc finger degron with the following mutations: G14N/K21A, L17I/K21L, or Q12R/K13V, were pretreated with the indicated concentrations of lenalidomide or left untreated. Data depict intracellular IFNγ, IL2, TNFα, and cell surface LAMP1 expression of CDK4 TCR+, EGFP intermediate, CD8+ T cells upon co-culture with NKIRTIL006 melanoma cells in the continued presence or absence of the indicated concentration of lenalidomide (A-D). Error bars represent standard deviation (n=3). Data are representative of two independent experiments. (E) Table depicts EC50Lenalidomide (nM) values of cells in (A-D), and EC50 fold change between the prior art zinc finger degron and a SynFinger containing the Q12R/K13V substitutions.
# FIG. 7: Combination of dual substitution sets can further increase lenalidomide sensitivity of SynFinger degron. (A-D) Primary human T cells modified with the HLA class I restricted CDK4 TCR plus a Zap70-Siglec11-degron CRASH-IT switch, in which the degron sequence contains the parental zinc finger degron (double hybrid degron depicted in FIGS. 1 and 3), or the parental zinc finger degron with the following mutations: G14N/K21A, Q12R/K13V, or Q12R/K13V/G14N/K21A, were pretreated with the indicated concentrations of lenalidomide or left untreated. Data depict intracellular IFNγ, IL2, TNFα, and cell surface LAMP1 expression of CDK4 TCR+, EGFP intermediate, CD8+ T cells upon co-culture with NKIRTIL006 melanoma cells in the continued presence or absence of the indicated concentration of lenalidomide (A-D). Error bars represent standard deviation (n=3). Data are representative of two independent experiments.
# To test whether the SynFingers that show an improved drug sensitivity in this Jurkat SynFinger library screen also led to an improved sensitivity to low IMID concentrations when expressed in primary human T cells, human peripheral blood T cells were modified to express the CDK4 TCR and indicated SynFinger containing CRASH-IT switch variants (FIG. 5). […]
row,Substance,cytokine production at very low lenalidomide concentration
1,LQCEICGFTCRQKGNLIRHILLH [SEQ ID NO: 14],improved cytokine production
2,LQCEICGFTCRQKMRLLRHIKLH [SEQ ID NO: 4],improved cytokine production
3,LQCEICGFTCRQKNNLLRHIALH [SEQ ID NO: 6],improved cytokine production
4,LQCEICGFTCRRTGNLLRHIKLH [SEQ ID NO: 2],improved cytokine production
